Results taken from patent publication US6271369A, “Chimeric molecules targeted to viral RNAs” (priority 1997, dated 2001).

How the values were obtained:
TAR:A25 :vif RNA = assay: Primer-extension analysis of TAR:A25:vif RNA cleavage products; format: biochemical, HIV-1
Description: To determine the exact sites of cleavage of the TAR:A25 :vif RNA induced by SEQ ID NO:1, a primer-extension DNA synthesis reaction was performed on the RNA cleavage products with reverse transcriptase.
A primer extension assay was used as described by Driscoll, et al. (Cell, 58:519 (1989)) except that all four dNTPs were included. DNA sequencing of plasmid pSP6/TAR:A25 :vif was with the same primer using Sequenase version 2.0 (United States Biochemical) and ^35 S-dATP. The sequence of the primer was 5'-[…]-3'(SEQ ID NO:3). Results were reproduced from two separate sets of RNA cleavage reactions.
The cleavage sites of the RNA subjected to the RNA cleavage reactions described above were determined by comparing the migration of the primer extension products and DNA sequencing products performed with the same primer annealed to the plasmid containing the TAR:A25 :vif sequence. […] Previous reports indicate that unmodified 2-sA stimulates 2-5A-dependent RNase to cleave RNA on the 3'-side of UN sequences, where N stands for any nucleotide.

poly(A) = assay: UV absorbance-temperature profile (melting) of complex with poly(A); format: physicochemical; details: 40 mM KH2PO4 pH 7.0
Description: We also compared the melting temperature of poly (A) with the melting temperature of SEQ ID NO:1 (FIG. 4). For this experiment, 1000 μL of 3.2×10^-6 M poly(A) in KH2 PO4 buffer (pH 7.0, 40 mM) was mixed with 1000 μL of 2.9 ×10^-6 M SEQ ID NO:1 in KH2 PO4 buffer, and the resulting mixture was incubated at 4° overnight before determination of melting temperature. At/Ai refers to the ratio of absorbance (At) at a given temperature compared to the absorbance (Ai) at the initial temperature (25-30° ). No -attempt was made to determine complex stoichiometry (2- or 3-stranded). Under similar conditions, an equimolar mixture of poly(A) and oligo(dT)20 gave a complex with a Tm of 40° (data not shown).
The effect of the 2-5A moiety of SEQ ID NO:1 on the ability of the dT18 region to anneal with its complementary poly (A) sequence as determined from UV absorbance-temperature profiles is shown in FIG. 4.

p5'A2'(p5'A2')2 P5'A2'p1[OCH2 (CH2)2 CH2 O]4p1[OCH2 (CH2)2 CH2 O]4p5'pdT3'(p5'dt3')16 p5'dt (AAAATTTTTTTTTTTTTTTTTT; chemistry not fully specified) [SEQ ID NO:1]
specific cleavage products / cleavage sites by primer extension (TAR:A25 :vif RNA): induced multiple cleavages within the oligo(rA) tract
levels of intact RNA (full-length primer extension products) (TAR:A25 :vif RNA; after incubation in cell-free system): greatly reduced
melting temperature (Tm) of complex with poly(A) (poly(A)): approximately 38 °C
hypochromicity on mixing with poly(A) (poly(A); 3.2×10^-6 M poly(A) + 2.9×10^-6 M): 17%
